Experimental data taken from patent publication US10351594B2, “Process for preparing compounds having triple activities of thrombolysis, antithrombosis, and radical scavenging” (Shanghai Lumosa Therapeutics Co., Ltd., priority 2013, dated 2019).
Where two headings read alike, the source gives them in different places.

System: stroke rats
[1] = 2.5 μmol/kg 5Ak after 6 hours from stroke onset, 1st day
[2] = 2.5 μmol/kg 5Ak after 6 hours from stroke onset, 2nd day
[3] = 2.5 μmol/kg 5Ak after 6 hours from stroke onset, 3rd day
[4] = 2.5 μmol/kg 5Ak after 6 hours from stroke onset, 4th day
[5] = 2.5 μmol/kg 5Ak after 6 hours from stroke onset, 5th day
[6] = 2.5 μmol/kg 5Ak after 6 hours from stroke onset, 6th day
[7] = 2.5 μmol/kg 5Ak after 24 hours from stroke onset, 1st day
[8] = 2.5 μmol/kg 5Ak after 24 hours from stroke onset, 2nd day
[9] = 2.5 μmol/kg 5Ak after 24 hours from stroke onset, 3rd day
[10] = 2.5 μmol/kg 5Ak after 24 hours from stroke onset, 4th day
[11] = 2.5 μmol/kg 5Ak after 24 hours from stroke onset, 5th day
[12] = 2.5 μmol/kg 5Ak after 24 hours from stroke onset, 6th day
[13] = 5 μmol/kg 5Ak after 24 hours from stroke onset, 1st day
[14] = 5 μmol/kg 5Ak after 24 hours from stroke onset, 2nd day
[15] = 5 μmol/kg 5Ak after 24 hours from stroke onset, 3rd day
[16] = 5 μmol/kg 5Ak after 24 hours from stroke onset, 4th day
[17] = 5 μmol/kg 5Ak after 24 hours from stroke onset, 5th day
[18] = 5 μmol/kg 5Ak after 24 hours from stroke onset, 6th day
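Further: male SD rats with thrombus-induced cerebral embolism via internal carotid artery, scored daily by Zealonga neurological deficit scale (0 no deficit to 5 death), lower score better.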

Experimental: The therapeutic effect was evaluated by neurological functional scores. The lower the score was, the better the therapeutic effect was. A 10% chloral hydrate solution was injected intraperitoneally into male SD rats at a dosage of 400 mg/kg body weight for anesthesia. A longitudinal incision was made at the center of the neck, and the right common carotid artery trunk was separated (about 3 cm in length). External carotid artery branches were each separated and ligated at the hyoid level, and the internal carotid artery was separated from the swollen part of the neck. The incision of the internal carotid artery and the proximal end of the common carotid artery were clipped respectively with noninvasive arterial clips, and the distal end of the external carotid artery was ligated. A catheter containing 0.5 mL thrombus suspension in normal saline was inserted in the external carotid artery trunk. When the clip on the internal carotid artery was released, the 0.5 mL thrombus suspension in normal saline in the catheter slowly flew from the external carotid artery to its proximal end, and then was injected into the arteries in brain through the internal carotid artery. Subsequently, the proximal end of the internal carotid artery was ligated, the arterial clips on the internal carotid artery and the common carotid artery were released, and blood flow was restored. After the wound was stitched up, 20,000 IU penicillin was intramuscularly injected for prevention from infection. […] Self-comparison was performed each day, and the neurological deficit degree was evaluated by the Zealonga method. A score of 0 indicated no sign of loss in neural function, 1 indicated the front limbs on the undamaged side could not stretch out, 2 indicated walking toward the undamaged side, 3 indicated tail-chasing walking in circles toward the undamaged side, 4 indicated involuntary walking with disturbance of consciousness, and 5 indicated death.

## C[C@H](NC(=O)[C@@H]1CCCN1)C(=O)N[C@@H](CCCCN)C(=O)NCCCC[C@H](NC(=O)[C@@H]1Cc2cc(O)c(O)cc2C(C)(C)N1)C(=O)O [Compound 5Ak, 3S-6,7-dihydroxy-1,1-dimethyl-1,2,3,4-tetrahydro-isoquinoline-3-acyl-Lys(Pro-Ala-Lys)]
2.5 μmol/kg 5Ak after 6 hours from stroke onset
  therapeutic effect, result in words: better therapeutic effect than 1 μmol/kg 5Ak
[1]
  Daily neural function scores, number of rats under 0 score: 1
  Daily neural function scores, number of rats under 1 score: 7
  Daily neural function scores, number of rats under 2 scores: 0
  Daily neural function scores, number of rats under 3 scores: 1
  Daily neural function scores, number of rats under 4 scores: 0
  Daily neural function scores, number of rats under 5 scores: 0
[2]
  Daily neural function scores, number of rats under 0 score: 3
  Daily neural function scores, number of rats under 1 score: 4
  Daily neural function scores, number of rats under 2 scores: 2
  Daily neural function scores, number of rats under 3 scores: 0
  Daily neural function scores, number of rats under 4 scores: 0
  Daily neural function scores, number of rats under 5 scores: 0
[3]
  Daily neural function scores, number of rats under 0 score: 6
  Daily neural function scores, number of rats under 1 score: 2
  Daily neural function scores, number of rats under 2 scores: 1
  Daily neural function scores, number of rats under 3 scores: 0
  Daily neural function scores, number of rats under 4 scores: 0
  Daily neural function scores, number of rats under 5 scores: 0
[4]
  Daily neural function scores, number of rats under 0 score: 6
  Daily neural function scores, number of rats under 1 score: 3
  Daily neural function scores, number of rats under 2 scores: 0
  Daily neural function scores, number of rats under 3 scores: 0
  Daily neural function scores, number of rats under 4 scores: 0
  Daily neural function scores, number of rats under 5 scores: 0
[5]
  Daily neural function scores, number of rats under 0 score: 5
  Daily neural function scores, number of rats under 1 score: 4
  Daily neural function scores, number of rats under 2 scores: 0
  Daily neural function scores, number of rats under 3 scores: 0
  Daily neural function scores, number of rats under 4 scores: 0
  Daily neural function scores, number of rats under 5 scores: 0
[6]
  Daily neural function scores, number of rats under 0 score: 7
  Daily neural function scores, number of rats under 1 score: 2
  Daily neural function scores, number of rats under 2 scores: 0
  Daily neural function scores, number of rats under 3 scores: 0
  Daily neural function scores, number of rats under 4 scores: 0
  Daily neural function scores, number of rats under 5 scores: 0
2.5 μmol/kg 5Ak after 24 hours from stroke onset
  therapeutic effect, result in words: certain therapeutic effect
[7]
  Daily neural function scores, number of rats under 0 score: 1
  Daily neural function scores, number of rats under 1 score: 4
  Daily neural function scores, number of rats under 2 scores: 1
  Daily neural function scores, number of rats under 3 scores: 0
  Daily neural function scores, number of rats under 4 scores: 1
  Daily neural function scores, number of rats under 5 scores: 0
[8]
  Daily neural function scores, number of rats under 0 score: 3
  Daily neural function scores, number of rats under 1 score: 2
  Daily neural function scores, number of rats under 2 scores: 1
  Daily neural function scores, number of rats under 3 scores: 1
  Daily neural function scores, number of rats under 4 scores: 0
  Daily neural function scores, number of rats under 5 scores: 0
[9]
  Daily neural function scores, number of rats under 0 score: 3
  Daily neural function scores, number of rats under 1 score: 2
  Daily neural function scores, number of rats under 2 scores: 1
  Daily neural function scores, number of rats under 3 scores: 0
  Daily neural function scores, number of rats under 4 scores: 0
  Daily neural function scores, number of rats under 5 scores: 1
[10]
  Daily neural function scores, number of rats under 0 score: 2
  Daily neural function scores, number of rats under 1 score: 2
  Daily neural function scores, number of rats under 2 scores: 1
  Daily neural function scores, number of rats under 3 scores: 1
  Daily neural function scores, number of rats under 4 scores: 0
  Daily neural function scores, number of rats under 5 scores: 0
[11]
  Daily neural function scores, number of rats under 0 score: 4
  Daily neural function scores, number of rats under 1 score: 0
  Daily neural function scores, number of rats under 2 scores: 1
  Daily neural function scores, number of rats under 3 scores: 0
  Daily neural function scores, number of rats under 4 scores: 0
  Daily neural function scores, number of rats under 5 scores: 1
[12]
  Daily neural function scores, number of rats under 0 score: 3
  Daily neural function scores, number of rats under 1 score: 1
  Daily neural function scores, number of rats under 2 scores: 1
  Daily neural function scores, number of rats under 3 scores: 0
  Daily neural function scores, number of rats under 4 scores: 0
  Daily neural function scores, number of rats under 5 scores: 0
2.5 μmol/kg 5Ak once per day after 6 hours from stroke onset, nine rats
  rats that died during successive 6-day treatment: no death occurred
2.5 μmol/kg 5Ak once per day after 24 hours from stroke onset, seven rats
  rats that died during successive 6-day treatment: two
5 μmol/kg 5Ak after 24 hours from stroke onset
  therapeutic effect, result in words: definite therapeutic effect
[13]
  Daily neural function scores, number of rats under 0 score: 0
  Daily neural function scores, number of rats under 1 score: 5
  Daily neural function scores, number of rats under 2 scores: 4
  Daily neural function scores, number of rats under 3 scores: 0
  Daily neural function scores, number of rats under 4 scores: 1
  Daily neural function scores, number of rats under 5 scores: 0
[14]
  Daily neural function scores, number of rats under 0 score: 2
  Daily neural function scores, number of rats under 1 score: 6
  Daily neural function scores, number of rats under 2 scores: 2
  Daily neural function scores, number of rats under 3 scores: 0
  Daily neural function scores, number of rats under 4 scores: 0
  Daily neural function scores, number of rats under 5 scores: 0
[15]
  Daily neural function scores, number of rats under 0 score: 2
  Daily neural function scores, number of rats under 1 score: 6
  Daily neural function scores, number of rats under 2 scores: 2
  Daily neural function scores, number of rats under 3 scores: 0
  Daily neural function scores, number of rats under 4 scores: 0
  Daily neural function scores, number of rats under 5 scores: 0
[16]
  Daily neural function scores, number of rats under 0 score: 5
  Daily neural function scores, number of rats under 1 score: 5
  Daily neural function scores, number of rats under 2 scores: 0
  Daily neural function scores, number of rats under 3 scores: 0
  Daily neural function scores, number of rats under 4 scores: 0
  Daily neural function scores, number of rats under 5 scores: 0
[17]
  Daily neural function scores, number of rats under 0 score: 6
  Daily neural function scores, number of rats under 1 score: 4
  Daily neural function scores, number of rats under 2 scores: 0
  Daily neural function scores, number of rats under 3 scores: 0
  Daily neural function scores, number of rats under 4 scores: 0
  Daily neural function scores, number of rats under 5 scores: 0
[18]
  Daily neural function scores, number of rats under 0 score: 7
  Daily neural function scores, number of rats under 1 score: 3
  Daily neural function scores, number of rats under 2 scores: 0
  Daily neural function scores, number of rats under 3 scores: 0
  Daily neural function scores, number of rats under 4 scores: 0
  Daily neural function scores, number of rats under 5 scores: 0
5 μmol/kg 5Ak once per day after 24 hours from stroke onset, ten rats
  rats that died during successive 6-day treatment: no death occurred
